# From ChEMBL document CHEMBL3507680, “University of Dundee, Gates Library screen for HepG2 cell viability”
# Where “and” joins values, the source holds several entries; their conditions need not be identical. Identical values can stand only once.
# Legend:
# [1] = Human HepG2 cell viability assay in 384 well format; assay type: toxicity, cell-based; parameters: dose 125 nL, time 70.5 hour; cytotoxicity at 70.5 h: concentration not given beside the values; details: for Inhibition: hepg2, 70.5 h, 70.5 h; for cytotoxicity at 70.5 h: HepG2 cells, read-out: Inhibition
# [2] = Human HepG2 cell viability dose-response assay; assay type: toxicity, cell-based
SMILES,cytotoxicity at 70.5 h [1],also measured
CC1=Nc2c(c(=O)[nH]n2C2CCCC2)C(c2ccc(C(=O)O)cc2)S1 (configuration not stated),,Inhibition [1]: -12.72% and -17.34%
CC1=Nc2c(c(=O)[nH]n2C2CCCC2)C(c2cccnc2)S1 (configuration not stated),,Inhibition [1]: -2.319% and 7.616%
CCOC(=O)CC(c1cccc(OC)c1OC)c1c(C)[nH][nH]c1=O (configuration not stated),,Inhibition [1]: -11.36% and -3.674%
CCS(=O)(=O)N1CCc2ccc(NC(=O)Nc3ccc(F)cc3F)cc21,61%,BOTTOM [2]: -8.818 and -13.27; HILLSLOPE [2]: 1.034 and 0.9987; TOP [2]: 101.1 and 100; pXC50 [2]: 4.643 and 4.737
CCC(=O)Nc1ccc2c(c1)CN(C(=O)c1ccco1)CC2,66.1%,BOTTOM [2]: 0; HILLSLOPE [2]: 0; TOP [2]: 0; pXC50 [2]: < 4.53
CCN(CC)c1nc(Nc2cccc(C(C)O)c2)nc2ccccc12 (configuration not stated),65%,BOTTOM [2]: -6.556 and -9.604; HILLSLOPE [2]: 3.369 and 3.239; TOP [2]: 95.36 and 94.66; pXC50 [2]: 5.073 and 5.085
CCCNc1cc(-c2c[nH]nc2C2CCN(C(=O)C3CCC3)C2)ccn1 (configuration not stated),96.6%,HILLSLOPE [2]: 3.782 and 3.402; TOP [2]: 97.22 and 96.9; pXC50 [2]: 6.441 and 6.523
COc1cc(OC)c(C2Nc3cc(Cl)ccc3C3=NCCN32)cc1OC (configuration not stated),73.2%,HILLSLOPE [2]: 0.8757 and 0.9571; TOP [2]: 114.1 and 108.1; pXC50 [2]: 4.986 and 5.042
CC(C)(C)c1cn2c(n1)C(CNCc1cnn3ccccc13)CCC2 (configuration not stated),71.2%,BOTTOM [2]: -11.51 and -11.88; HILLSLOPE [2]: 1.1 and 1.076; TOP [2]: 100; pXC50 [2]: 5.268 and 5.282
CC(C)(C)c1cn2c(n1)C(CNCc1ccccn1)CCC2 (configuration not stated),70.8%,BOTTOM [2]: -8.279 and -9.133; HILLSLOPE [2]: 1.336 and 1.545; TOP [2]: 100 and 90.93; pXC50 [2]: 5.194 and 5.33
Cc1nc(CN2CCCC(N(C)Cc3cnn(C)c3)C2)no1 (configuration not stated),89.5%,BOTTOM [2]: 0; HILLSLOPE [2]: 0; TOP [2]: 0; pXC50 [2]: < 4.53
O=C(Cn1cnc2ccccc2c1=O)Nc1cc(C2CC2)n[nH]1,107%,BOTTOM [2]: -7.289 and -9.306; HILLSLOPE [2]: 2.407 and 2.226; TOP [2]: 101 and 100.4; pXC50 [2]: 6.137 and 6.176
COCCn1c2c(ccc1=O)CC(NCc1cnn(C)c1)CC2 (configuration not stated),101%,BOTTOM [2]: 0; HILLSLOPE [2]: 0; TOP [2]: 0; pXC50 [2]: < 4.53
CCCn1ncc(-c2ccnc(NC3CC(C)(C)NC(C)(C)C3)n2)c1C,80.1%,BOTTOM [2]: 0; HILLSLOPE [2]: 0; TOP [2]: 0; pXC50 [2]: < 4.53
CCc1[nH]c2c(CNc3nc(C)cc(NC)n3)cc(C)cc2c1C,99.9%,BOTTOM [2]: -3.977 and -5.003; HILLSLOPE [2]: 3.393 and 3.303; TOP [2]: 104.5 and 105; pXC50 [2]: 5.219 and 5.191
COCc1cc(N(C)Cc2c(C)nn(C)c2C)n2nccc2n1,64.9%,BOTTOM [2]: 0; HILLSLOPE [2]: 0; TOP [2]: 0; pXC50 [2]: < 4.53
CCCc1nc(CN2CCCC2Cn2cncn2)cs1 (configuration not stated),17.1%,
COc1cc(C)nc(N2CCN(C(=O)CCn3cc(C)cn3)CC2)n1,-0.584%,
CC(=O)Nc1nc(CN2CCCC2c2cnn(C)c2)cs1 (configuration not stated),31.4%,
CCn1ncc2c1CCCC2NCc1cc(Cl)c(OC)c(OC)c1 (configuration not stated),27.8%,
CCn1ncc2c1CCCC2NCc1ccc(OC)c(C)c1 (configuration not stated),33.6%,
Cc1nc(C)n(C2CCCN(C(=O)c3sccc3C3CC3)C2)n1 (configuration not stated),21.5%,
Cc1nn(C)c(N2CCOCC2)c1CNC1CCOc2ccccc21 (configuration not stated),-3.07%,
COc1c(C)cnc(CN2CCOC(Cn3nc(C)nc3C)C2)c1C (configuration not stated),-1.22%,

SMILES,cytotoxicity at 70.5 h [1],also measured
c1coc(-c2noc(CN3CCCC(Cn4cncn4)C3)n2)c1 (configuration not stated),26%,
CCn1cc(CN2CCCN(C(=O)c3sccc3C#N)CC2)cn1,37.5%,
CCn1ccnc1CN1CCCN(C(=O)c2sccc2C#N)CC1,1.96%,
CCc1noc(C)c1C(=O)N1CCCC1c1c(C)nn(C)c1OC (configuration not stated),18%,
Cc1nn(C)c(C)c1C1CCCN1Cc1cccc(C(=O)N(C)C)c1 (configuration not stated),37.6%,
Cc1nc(CN2CCOC(c3nc(C(C)C)n[nH]3)C2)oc1C (configuration not stated),6.2%,
CCc1nc(CN(C(C)=O)C2CCN(CCc3cnn(C)c3)C2)no1 (configuration not stated),21.3%,
CCN1CCN(C2CCN(Cc3noc(C)n3)CC2)C1=O,28.4%,
Cc1ccc(NC(=O)NCCCc2n[nH]c(N)c2C#N)cc1,-3.1%,
COCCOc1ccc(NC(=O)C2CCC2)cn1,-7.54%,
CC(NC(=O)NCCCn1ccnc1)c1ccc2c(c1)CCC(=O)N2 (configuration not stated),43.4%,
Cc1noc(NC(=O)c2ccc(C)c(F)c2)n1,41%,
CC(NC(=O)NCCCn1cccn1)c1ccc2c(c1)NC(=O)CO2 (configuration not stated),46.4%,
N#Cc1cccc(S(=O)(=O)NC2CCN(Cc3ccccc3)C2=O)c1 (configuration not stated),-2.45%,
COc1cc(C(=O)Nc2c(C)noc2C)ccc1C,1.7%,
CCS(=O)(=O)N(C)C(=O)c1cc(C)n(-c2cccc(OC)c2)c1C,27.9%,
Cc1cnn(CC2CN(c3cnc4ccccc4n3)CCO2)c1 (configuration not stated),48.4%,
Cc1cc(CN2CCN(CC(O)C(C)(C)C)CC2)no1 (configuration not stated),9.4%,
CC(C)c1n[nH]c(C(=O)Nc2ccnn2C(C)C)c1Br,45.8%,
Cc1cc(CN2CCN(CC(O)c3ccccc3)CC2)no1 (configuration not stated),0.624%,
COc1cccc2cc(CNC(=O)N3CCCC(O)C3)oc12 (configuration not stated),46.8%,
CNS(=O)(=O)CCCN1CCCC1c1noc(C2CC2)n1 (configuration not stated),-6.19%,
Cc1nc(CN2CCCC(NCCOc3ccccc3)C2)no1 (configuration not stated),-5.84%,
Cc1cc(C)n(C2CCCN(C(=O)Cc3csc(C)n3)C2)n1 (configuration not stated),12.8%,

SMILES,cytotoxicity at 70.5 h [1],also measured
Cc1nc(CN2CCCC(NCCOCC(F)(F)F)C2)no1 (configuration not stated),24.6%,
COc1ccccc1CC(=O)N1CCCC(n2nc(C)cc2C)C1 (configuration not stated),2.04%,
CN(Cc1ncc(C(C)(C)C)o1)C1CCCN(c2cccnn2)C1 (configuration not stated),-11.9%,
Cc1nccn1CC1CCCN1S(=O)(=O)Cc1ccon1 (configuration not stated),4.51%,
Cn1cc(C2CCCN2C(=O)Cc2n[nH]c3ccccc23)cn1 (configuration not stated),40.1%,
CCC(CC)C(CNC(=O)Nc1cc(C)nn1C)N1CCOCC1 (configuration not stated),36.9%,
Cc1cc(CN2CCN(C(=O)NCc3ccc(C)s3)CC2)no1,-27.6%,
CN1CCN(C(=O)c2cnc3c(cnn3C3CCCC3)c2)CC1,-10%,
CCN(CC1CCCO1)C(=O)Nc1cc(OC)c(OC)cc1C (configuration not stated),-14.3%,
CC(C)C(=O)N1CCN(C(=O)CCc2nnc(-c3ccccc3)o2)CC1,-21.2%,
CCC(O)CN1CCN(C(=O)c2cccn2Cc2cccs2)CC1 (configuration not stated),-17.9%,
Cc1nc(C2CCCN(C(=O)c3cc(Cl)c[nH]3)C2)no1 (configuration not stated),-15.5%,
Cc1cc(C(=O)N2CCCC(c3noc(C)n3)C2)[nH]n1 (configuration not stated),34.4%,
O=C(CCCc1nnc(-c2ccccc2)o1)N1CCN(CCO)CC1,-32.4%,
CCN(CC1CCCO1)C(=O)Nc1cc(C(=O)OC)ccc1F (configuration not stated),-22.1%,
O=C(c1n[nH]c2ccccc12)N1CCCC1c1noc(C2CC2)n1 (configuration not stated),-17.4%,
CCOC1CCCN(C(=O)c2cnc3c(cnn3C3CCCC3)c2)C1 (configuration not stated),-18%,
CC(C)(C)c1cnc(CN2CCC(c3ccnn3CCO)CC2)o1,-11.1%,
CCn1nnc2cc(C(=O)N3CCCC3Cn3cc(C)cn3)ccc21 (configuration not stated),-19.4%,
Cc1cnn(CC2CCCN2Cc2nc3ccccc3n2C)c1 (configuration not stated),-10.6%,
Cl.Clc1cccc(N[C@H]2CCCN[C@H]2Cc2ccccc2)c1,104%,BOTTOM [2]: 3.022 and 5.09; HILLSLOPE [2]: 10.78 and 7.141; TOP [2]: 102.1 and 102.6; pXC50 [2]: 5.327 and 5.334
CN1CCC(c2n[nH]c3ncccc23)C1.O=CO (configuration not stated),81.6%,HILLSLOPE [2]: 2.128 and 2.318; TOP [2]: 100; pXC50 [2]: 4.946 and 4.92
C/N=C1\c2cc3cc(OC)ccc3n2CCN1Cc1ccccc1.O=C(O)C(F)(F)F,68.5%,BOTTOM [2]: -10.9 and -4.699; HILLSLOPE [2]: 1.421 and 1.435; TOP [2]: 100; pXC50 [2]: 5.16 and 5.151
